Assay results from patent US9695155B2, “Herbicidal substituted pyrimidinyloxy benzene compounds” (E. I. DU PONT DE NEMOURS AND COMPANY, priority 2013, dated 2017).

What was measured:
[1] = tested on: corn; assay: Test A preemergence; assay type: in vivo, Zea mays
In short: (§1)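 Compounds in non-phytotoxic solvent with surfactant applied as soil spray preemergence, or postemergence to plants 2-10 cm at one- to two-leaf stage, in loam/sand. After approximately 10 days in greenhouse, injury rated visually versus untreated controls, 0 (no effect) to 100 (complete control).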

[2] = tested on: barnyardgrass; assay: Test A postemergence; assay type: in vivo, Echinochloa crus-galli
In short: as §1

[3] = tested on: corn; assay: Test A postemergence; assay type: in vivo, Zea mays
In short: as §1

[4] = tested on: wheat, winter; assay: Test C postemergence; assay type: in vivo, Triticum aestivum
Text: (§2) Seeds of plant species selected from blackgrass (Alopecurus myosuroides), Italian ryegrass (Lolium multiflorum), wheat, winter (winter wheat, Triticum aestivum), galium (catchweed bedstraw, Galium aparine), corn (Zea mays), large (Lg) crabgrass (Digitaria sanguinalis), giant foxtail (Setaria faberii), johnsongrass (Sorghum halepense), lambsquarters (Chenopodium album), morningglory (Ipomoea coccinea), yellow nutsedge (Cyperus esculentus), pigweed (Amaranthus retroflexus), ragweed (common ragweed, Ambrosia elatior), soybean (Glycine max), barnyardgrass (Echinochloa crus-galli), oilseed rape (Brassica napus), waterhemp (common waterhemp, Amaranthus rudis), kochia (Kochia scoparia), wild oat (Avena fatua), surinam grass (Brachiaria decumbens), foxtail, green (green foxtail, Setaria viridis), goosegrass (Eleusine indica), bromegrass, downy (downy bromegrass, Bromus tectorum), nightshade (eastern black nightshade, Solanum ptycanthum), cocklebur (common cocklebur, Xanthium strumarium), cupgrass, woolly (woolly cupgrass, Eriochloa villosa), bermudagrass (Cynodon dactylon), sunflower, (common oilseed sunflower, Helianthus annuus), Russian thistle (Salsola kali), and velvetleaf (Abutilon theophrasti) were planted into a blend of loam soil and sand and treated preemergence with test chemicals formulated in a non-phytotoxic solvent mixture which included a surfactant.
(§3) At the same time, plants selected from these crop and weed species and also barley, winter (winter barley, Hordeum vulgare), windgrass (Apera spica-venti), chickweed (common chickweed, Stellaria media), deadnettle (henbit deadnettle, Lamium amplexicaule), and canarygrass (littleseed canarygrass, Phalaris minor) were planted in pots containing Redi-Earth® planting medium (Scotts Company, 14111 Scottslawn Road, Marysville, Ohio 43041) comprising spaghnum peat moss, vermiculite, wetting agent and starter nutrients and treated with postemergence applications of test chemicals formulated in the same manner. Plants ranged in height from 2 to 18 cm (1- to 4-leaf stage) for postemergence treatments. Treated plants and controls were maintained in a greenhouse for 13 to 15 days, after which time all species were compared to controls and visually evaluated. Plant response ratings, summarized in Table C, are based on a scale of 0 to 100 where 0 is no effect and 100 is complete control. A dash (-) response means no test result.

[5] = tested on: galium; assay: Test C postemergence; assay type: in vivo, Galium aparine
Text: as §2, §3

[6] = tested on: yellow nutsedge; assay: Test C postemergence; assay type: in vivo, Cyperus esculentus
Text: as §2, §3

[7] = tested on: ragweed; assay: Test C postemergence; assay type: in vivo, Ambrosia elatior
Text: as §2, §3

[8] = tested on: barnyardgrass; assay: Test C postemergence; assay type: in vivo, Echinochloa crus-galli
Text: as §2, §3

[9] = tested on: waterhemp; assay: Test C postemergence; assay type: in vivo, Amaranthus rudis
Text: as §2, §3

[10] = tested on: wild oat; assay: Test C postemergence; assay type: in vivo, Avena fatua
Text: as §2, §3

[11] = 500 g ai/ha, 0 to 100 scale where 0 is no effect and 100 is complete control
[12] = 125 g ai/ha, 0 to 100 scale where 0 is no effect and 100 is complete control
[13] = 16 g ai/ha, postemergence, 0 is no effect, 100 is complete control
[14] = 31 g ai/ha, postemergence, visual rating, scale 0 to 100 (0 no effect, 100 complete control), 13 to 15 days
[15] = 125 g ai/ha, postemergence, visual rating, scale 0 to 100 (0 no effect, 100 complete control)
[16] = Postemergence, 62 g ai/ha, scale 0 to 100 (0 no effect, 100 complete control), 13 to 15 days

FC(F)c1cnn(-c2c(Cl)cccc2Oc2ncc(Cl)cn2)c1 [Compound 192]
Corn plant response rating (0 to 100 scale) ([1]; 125 g ai/ha): 0 | Corn plant response rating [1, 11]: 50 | Barnyardgrass plant response rating [2, 12]: 60 | Plant response rating, Barnyardgrass [2, 11]: 90 | Corn plant response rating [3, 12]: 10 | Plant response rating, Corn [3, 11]: 60 | Plant response rating (0 to 100), Wheat [4, 13]: 0 | Wheat plant response rating [4, 14]: 0 | Plant response rating, Wheat [4, 15]: 5 | Plant response rating, Wheat [4, 16]: 5 | Plant response rating (0 to 100), Galium [5, 13]: 60 | Galium plant response rating [5, 14]: 80 | Plant response rating, Galium [5, 15]: 85 | Plant response rating, Galium [5, 16]: 80 | Plant response rating (0 to 100), Nutsedge, Yellow [6, 13]: 5 | Nutsedge, Yellow plant response rating [6, 14]: 5 | Plant response rating, Nutsedge, Yellow [6, 15]: 40 | Plant response rating, Nutsedge, Yellow [6, 16]: 0 | Plant response rating (0 to 100), Ragweed [7, 13]: 10 | Ragweed plant response rating [7, 14]: 25 | Plant response rating, Ragweed [7, 15]: 45 | Plant response rating, Ragweed [7, 16]: 15 | Plant response rating (0 to 100), Barnyardgrass [8, 13]: 5 | Barnyardgrass plant response rating [8, 14]: 10 | Plant response rating, Barnyardgrass [8, 15]: 10 | Plant response rating, Barnyardgrass ([8]; Postemergence, 62 g ai/ha, scale 0 to 100 (0 no effect, 100 complete control)): 10 | Plant response rating (0 to 100), Waterhemp [9, 13]: 40 | Waterhemp plant response rating [9, 14]: 50 | Plant response rating, Waterhemp [9, 15]: 85 | Plant response rating, Waterhemp [9, 16]: 65 | Plant response rating (0 to 100), Oat, Wild [10, 13]: 0 | Oat, Wild plant response rating [10, 14]: 0 | Plant response rating, Oat, Wild [10, 15]: 5 | Plant response rating, Oat, Wild [10, 16]: 5

Clc1cnn(-c2ccccc2Oc2ncc(Br)cn2)c1 [Compound 5, 5-bromo-2-[2-(4-chloro-1H-pyrazol-1-yl)phenoxy]pyrimidine]
plant injury at 125 g/ha ([1]; Zea mays, pre-emergence, 240 h, 125 g ai/ha, 0 to 100 scale where 0 is no effect and 100 is complete control, read-out: Corn plant response rating): 0% | plant injury at 500 g/ha ([1]; Zea mays, pre-emergence, 240 h, 500 g ai/ha, 0 to 100 scale, 0 no effect, 100 complete control, approx. 10 days, read-out: Corn plant response rating): 0% | pest or weed control at 125 g/ha ([2]; Echinochloa crus-galli, post-emergence, 240 h, 125 g ai/ha, 0 to 100 scale where 0 is no effect and 100 is complete control, read-out: Plant response rating, Barnyardgrass): 10% | pest or weed control at 500 g/ha ([2]; Echinochloa crus-galli, post-emergence, 240 h, 500 g ai/ha, 0 to 100 scale, 0 no effect, 100 complete control, read-out: Plant response rating Barnyardgrass): 60% | Corn plant response rating (crop injury, 0 = no effect, 100 = complete kill) at 125 g/ha ([3]; Zea mays, post-emergence, 240 h, 125 g ai/ha, 0 to 100 scale where 0 is no effect and 100 is complete control): 0% | plant injury at 500 g/ha ([3]; Zea mays, post-emergence, 240 h, 500 g ai/ha, 0 to 100 scale, 0 no effect, 100 complete control, read-out: Plant response rating Corn): 30% | plant injury at 125 g/ha ([4]; Triticum aestivum, post-emergence, 125 g ai/ha, postemergence, read-out: Plant response rating (0 to 100), Wheat): 10% | plant injury at 250 g/ha ([4]; Triticum aestivum, post-emergence, 250 g ai/ha, postemergence, read-out: Plant response rating (0 to 100), Wheat): 40% | plant injury at 31 g/ha ([4]; Triticum aestivum, post-emergence, Postemergence, 31 g ai/ha, scale 0 to 100 (0 no effect, 100 complete control), 13 to 15 days, read-out: Plant response rating, Wheat): 0% | plant injury at 62 g/ha ([4]; Triticum aestivum, post-emergence, Postemergence, 62 g ai/ha, scale 0 to 100 (0 no effect, 100 complete control), read-out: Plant response rating, Wheat): 5% | pest or weed control at 125 g/ha ([5]; Galium, post-emergence, 125 g ai/ha, postemergence, read-out: Plant response rating (0 to 100), Galium): 80% | pest or weed control at 250 g/ha ([5]; Galium, post-emergence, 250 g ai/ha, postemergence, read-out: Plant response rating (0 to 100), Galium): 95% | pest or weed control at 31 g/ha ([5]; Galium, post-emergence, Postemergence, 31 g ai/ha, scale 0 to 100 (0 no effect, 100 complete control), 13 to 15 days, read-out: Plant response rating, Galium): 55% | pest or weed control at 62 g/ha ([5]; Galium, post-emergence, Postemergence, 62 g ai/ha, scale 0 to 100 (0 no effect, 100 complete control), read-out: Plant response rating, Galium): 70% | pest or weed control at 125 g/ha ([6]; Cyperus, post-emergence, 125 g ai/ha, postemergence, read-out: Plant response rating (0 to 100), Nutsedge, Yellow): 15% | pest or weed control at 250 g/ha ([6]; Cyperus, post-emergence, 250 g ai/ha, postemergence, read-out: Plant response rating (0 to 100), Nutsedge, Yellow): 15% | pest or weed control at 31 g/ha ([6]; Cyperus, post-emergence, Postemergence, 31 g ai/ha, scale 0 to 100 (0 no effect, 100 complete control), 13 to 15 days, read-out: Plant response rating, Nutsedge, Yellow): 5% | pest or weed control at 62 g/ha ([6]; Cyperus, post-emergence, Postemergence, 62 g ai/ha, scale 0 to 100 (0 no effect, 100 complete control), read-out: Plant response rating, Nutsedge, Yellow): 5% | pest or weed control at 125 g/ha ([7]; Ambrosia artemisiifolia, post-emergence, 125 g ai/ha, postemergence, read-out: Plant response rating (0 to 100), Ragweed): 55% | pest or weed control at 250 g/ha ([7]; Ambrosia artemisiifolia, post-emergence, 250 g ai/ha, postemergence, read-out: Plant response rating (0 to 100), Ragweed): 85% | pest or weed control at 31 g/ha ([7]; Ambrosia artemisiifolia, post-emergence, Postemergence, 31 g ai/ha, scale 0 to 100 (0 no effect, 100 complete control), 13 to 15 days, read-out: Plant response rating, Ragweed): 15% | pest or weed control at 62 g/ha ([7]; Ambrosia artemisiifolia, post-emergence, Postemergence, 62 g ai/ha, scale 0 to 100 (0 no effect, 100 complete control), read-out: Plant response rating, Ragweed): 45% | pest or weed control at 125 g/ha ([10]; Avena fatua, post-emergence, 125 g ai/ha, postemergence, read-out: Plant response rating (0 to 100), Oat, Wild): 10% | pest or weed control at 250 g/ha ([10]; Avena fatua, post-emergence, 250 g ai/ha, postemergence, read-out: Plant response rating (0 to 100), Oat, Wild): 30% | pest or weed control at 31 g/ha ([10]; Avena fatua, post-emergence, Postemergence, 31 g ai/ha, scale 0 to 100 (0 no effect, 100 complete control), 13 to 15 days, read-out: Plant response rating, Oat, Wild): 0% | pest or weed control at 62 g/ha ([10]; Avena fatua, post-emergence, Postemergence, 62 g ai/ha, scale 0 to 100 (0 no effect, 100 complete control), read-out: Plant response rating, Oat, Wild): 5%
